Experimental data as given in patent US20150141375A1 (priority 2009, published 2015).
Where “and” joins values, the source holds several entries; their conditions need not be identical. Equal entries are not always repeated. Entries after “also recorded” stand apart in the source; their conditions may differ. Where two headings read alike, the source gives them in different places.

What was measured:
[1] = PK comparison, mouse; format: in vivo; details: in vivo, 2 mg/kg, calculated from doses of 2 and 10 mg/kg, analyte = label
Excerpt: (§1) Table 4 illustrates the PK comparison of CMX001 with CMX021 and CMX064 for mouse, rabbit and human.

[2] = Oral toxicology studies, nephrotoxicity; format: in vivo, mice, rats, rabbits and monkeys
Excerpt: In addition, over twenty-one toxicology studies have been conducted in mice, rats, rabbits and monkeys with CMX001 being delivered by the oral route.

[3] = tested on: ADV; assay: Retrospective analysis of EIND patients with AdV disease; format: in vivo, human
Procedure: The records of patients who were granted emergency investigational-new-drug approval for CMX001 for treatment of AdV were analyzed retrospectively. Of the 16 patients with AdV disease treated with CMX001, 13 had data available for ≧4 weeks after starting CMX001. Doses of CMX001 ranged from approximately 1 mg/kg once weekly to 4 mg/kg twice weekly. Adenovirus qPCR was performed at VireCor (9 cases), Focus Diagnostics (2) and Molecular Virology Laboratory, University of Washington (2). Disseminated AdV disease was defined by the isolation of the virus from 2 or more sites, including blood. At the end of CMX001 treatment, virologic response (VR) was defined as either ≧99% drop in plasma VL from baseline or undetectable plasma virus. The Wilcoxon signed rank test was used to evaluate whether VL changed from baseline to weeks 1, 2, 4, 6, and 8. Logistic regression models were employed to evaluate possible associations between covariates and VR.

[4] = tested on: HPV 11; assay: In vitro potency against dsDNA viruses: HPV 11; format: cell-based
[5] = tested on: HHV-6; assay: In vitro potency against dsDNA viruses: HHV-6; format: cell-based
[6] = tested on: adenovirus; assay: First fifteen EIND patients: adenovirus; details: individual patients
[7] = tested on: vaccinia virus; details: CMX001 200 mg initial dose plus other therapies (MMWR 2009); cited from earlier work
[8] = PK comparison, rabbit; details: in vivo, 2 mg/kg, calculated from doses of 5 and 10 mg/kg, analyte = label, after CMX001
Excerpt: as §1

[9] = tested on: BK Virus; assay: BK virus replication in RPTECs, viral DNA by qPCR after 5 days; format: cell-based; details: Betapolyomavirus hominis, RPTEC
Procedure: To test the ability of CMX001 to inhibit replication of BK virus, stocks of BK virus were prepared in HFF cells and dilutions of the virus stocks were used to infect primary human renal tubular epithelial cells (RPTECs). Drug dilutions were then added to the wells containing the infected cells and the plates were incubated for 5 days. Total DNA was prepared from the plates and viral DNA was quantified by qPCR.

[10] = tested on: CMV
[11] = tested on: Mad-4 JCV; assay: JCV (Mad-4) initial infection of SVG cells (in situ DNA hybridization, qPCR)
[12] = tested on: JCV Mad-4; assay: JCV Mad-4 extracellular load in astrocyte cells; format: cell-based, JC virus; details: in the presence of CMX001
[13] = tested on: BK Virus; details: has been reported; read-out: EC50 for BK virus infection; cited from earlier work
[14] = tested on: JCV; assay: First fifteen EIND patients: JCV; format: in vivo, human; details: one patient
[15] = tested on: human astrocytes; assay: Toxicity evaluation in human astrocytes (XTT); format: cell-based; details: two experiments, different astrocyte lots; listed as CMX001-044
[16] = tested on: CMV; remark: listed apart in the source
[17] = tested on: EBV; assay: In vitro potency against dsDNA viruses: EBV; format: cell-based
[18] = tested on: adenovirus; assay: Pediatric bone marrow transplant recipient with disseminated adenovirus infection
[19] = tested on: Variola major; assay: organism not typed; format: cell-based
[20] = tested on: HSV-1; assay: In vitro potency against dsDNA viruses: HSV-1; format: cell-based
[21] = tested on: CMV; details: human, in vivo
[22] = 3-way crossover bioavailability / food effect study in healthy volunteers; format: in vivo, human
Procedure: An open-label, 3-way crossover study in healthy volunteers comparing the bioavailability of CMX001 tablet versus solution formulation and the effect of food on CMX001 pharmacokinetics was completed. 24 healthy volunteers received 40 mg tablets (fed), 40 mg tablets (fasted), and 40 mg as a solution (fasted). […] Exposure as indicated by AUC was unchanged.

Structure (SMILES): CCCCCCCCCCCCCCCCOCCCOP(=O)(O)CO[C@H](CO)Cn1ccc(N)nc1=O [CMX001, Hexadecyloxypropyl-cidofovir]
- AUC ([1]; after CMX001): 83.1 ng·h/mL
- Cmax ([1]; after CMX001, read-out: Cmax): 7.9 ng/mL
- indication of nephrotoxicity ([2]; over twenty-one toxicology studies, oral route): In none of these studies
- evidence of nephrotoxicity ([2]; single and repeated dosing in animals and human volunteers, 0.1 mg/kg to 4.0 mg/kg): no evidence of nephrotoxicity
- patients achieving virologic response (VR) ([3]; 8 of 13 patients, VR = ≧99% drop in plasma VL or undetectable): 61.5%
- safety ([3]; 13 patients): No serious adverse events, gastro-intestinal, renal or bone marrow toxicity were reported
- Median decrease from baseline, adenovirus viral load ([3]; Week 1): 1.43 log10
- Median decrease from baseline, adenovirus viral load ([3]; Week 2): 1.71 log10
- Median decrease from baseline, adenovirus viral load ([3]; Week 4): 1.89 log10
- Median decrease from baseline, adenovirus viral load ([3]; Week 6): 2.44 log10
- Median decrease from baseline, adenovirus viral load ([3]; Week 8): 2.98 log10
- EC50 ([4]; A-431, A431): 17000 nM
- Enhanced Activity ([4]; CMX001 versus cidofovir EC50): 42
- Enhanced Activity ([5]; CMX001 versus cidofovir EC50): 50
- EC50 ([5]; HSB2, HSB-2): 4 nM
- AdV viremia after 1st week [6]: 3.2 Log 10 copies/mL and 5.4 Log 10 copies/mL and 5.0 Log 10 copies/mL and 2.3 Log 10 copies/mL and 7.4 Log 10 copies/mL and 3.4 Log 10 copies/mL and 5.2 Log 10 copies/mL and 2.0 Log 10 copies/mL
- AdV viremia after 1st week, change from pre-RX [6]: 4.0 Log 10 copies/mL and 1.0 Log 10 copies/mL and 0.5 Log 10 copies/mL and 1.9 Log 10 copies/mL and 0.7 Log 10 copies/mL and 2.0 Log 10 copies/mL and 1.3 Log 10 copies/mL and 2.5 Log 10 copies/mL
- AdV viremia after 2nd week [6]: 2.2 Log 10 copies/mL (2×) and 6.2 Log 10 copies/mL (2×) and 4.1 Log 10 copies/mL and 7.0 Log 10 copies/mL and 3.3 Log 10 copies/mL and 0 Log 10 copies/mL
- AdV viremia after 2nd week, change from pre-RX [6]: 5.0 Log 10 copies/mL and 0.2 Log 10 copies/mL and 1.3 Log 10 copies/mL and 2.0 Log 10 copies/mL and 1.1 Log 10 copies/mL and 2.1 Log 10 copies/mL and 0.3 Log 10 copies/mL and 4.5 Log 10 copies/mL
- Outcome [6]: Survived; also recorded: Death
- time until virus cultures at the vaccination site became negative for vaccinia virus [7]: ≤ 5 days
- AUC [8]: 102 ng·h/mL
- Cmax [8]: 18 ng/mL
- EC50 ([9]; Virus Dilution 1:10): 16 nM
- EC50 ([9]; Virus Dilution 1:50): 3.5 nM
- EC50 ([9]; Virus Dilution 1:100): 3.7 nM
- peak plasma concentration of CMX001 ([10]; person with renal failure, following the first dose): 264 ng/mL
- Plasma CMV by PCR ([10]; person, Week 5, 120 mg): 3307
- Plasma CMV by PCR ([10]; person, Week 10, 120 mg): 1541
- CMV DNA ([10]; person, following 2 weeks of skipped doses): 5,037 copies/mL
- CMV plasma DNA ([10]; person, following the first dose (180 mg)): undetectable
- CMV DNA ([10]; person, following the start of treatment): undetectable
- renal, liver, or hematologic function ([10]; person, more than 16 weeks): No drug-related adverse changes in renal, liver, or hematologic function were observed
- reduction in percentage of JCV DNA containing cells ([11]; 0.03 μM, 4 days): 46%
- decrease in number of JCV genome copies (qPCR) ([11]; 0.07 μM, 4 days): 57%
- reduction in percentage of JCV DNA containing cells ([11]; 0.07 μM, 4 days): 57%
- maximal suppression of JCV DNA containing cells, normalized to total cell number ([11]; 0.1 μM): 52%
- reduction in percentage of JCV DNA containing cells ([11]; 0.1 μM, 4 days): 71%
- EC50 ([11]; JC polyomavirus, read-out: EC50, JCV copy number): 45 nM
- change in extracellular JCV load over 7 days [12]: less than 1 log
- EC50 [13]: 140 nM
- JCV in cerebrospinal fluid (CSF) and urine [14]: became undetectable
- TC50 [15]: 134400 nM and 165800 nM
- average reduction in CMV by PCR ([16]; 2 of 5 patients without UL54 mutations): 1.2 log 10
- median reduction in VL ([16]; 4 weeks, 7 patients): greater than 1.2 log 10
- 1 log reduction in viremia at the last time point ([16]; patients with UL54 mutation (L501F and A987G)): Neither of two patients
- complete response ([16]; patients without mutations in CMV UL54 (3 of 5)): 60%
- dose adjustment for kidney function ([16]; two patients with pre-existing renal insufficiency): no dose adjustment was needed based on kidney function
- Enhanced Activity ([17]; CMX001 versus cidofovir EC50): >4250
- EC50 ([17]; human gammaherpesvirus 4, Dardi): 40 nM
- tolerability ([18]; 2-3 mg/kg): well tolerated
- peak cidofovir concentrations, fold lower than label for 5 mg/kg Vistide ([18]; female, human, plasma, oral): more than 100 fold
- decrease in viral load ([18]; oral CMX001): 8 log
- Enhanced Activity ([19]; CMX001 versus cidofovir EC50): 271
- EC50 ([19]; Vero 76): 100 nM
- Enhanced Activity ([20]; CMX001 versus cidofovir EC50): 250
- EC50 ([20]; Human alphaherpesvirus 1, MRC5, MRC-5): 60 nM
- serious adverse events [21]: No trends were observed in serious adverse events
- adverse events ([22]; 40 mg): no serious adverse events
- exposure as indicated by AUC ([22]; 40 mg): unchanged
- reduction of plasma Cmax by a high fat meal ([22]; 40 mg tablets): approximately 40%
- delay of Tmax, tablet versus liquid formulation ([22]; 40 mg, fasted): ~1 h
